Assay results as given in article PMC10115881, “Disrupting the α-synuclein-ESCRT interaction with a peptide inhibitor mitigates neurodegeneration in preclinical models of Parkinson’s disease” (Nature Communications, 2023).

Experiments:
Assay type in all cases: cell-based
endogenous a-syn = assay: Endogenous a-syn immunofluorescence in rat cortical neurons
Text: Pregnant rats (E17) of the Sprague-Dawley strain were purchased from Envigo. Embryos were surgically removed from the mothers and cortices dissected in Hanks Balanced salt solution (Gibco). The meninges were removed, and cells were dissociated using a papain dissociation system (Worthington) before being resuspended in Neurobasal medium A supplemented with antibiotic-antimycotic solution (Gibco), L-glutamine substitute (GlutaMAX™; Gibco) and factor B27 (Gibco). […]
After fixation, cells were permeabilized with 0.2% Triton-X-100 for 15 min, washed three times with PBS and then incubated with blocking solution (1% BSA, 22.52 mg/mL glycine, 0.1% Tween-20 in PBS or 0.4% saponin, 1% BSA, and 5% goat or donkey serum in PBS) for 1 h. […] Following another three washes with PBS, nuclei were counterstained with DAPI (ThermoFisher) and then coverslips were mounted on slides using Dako fluorescence mounting medium (Agilent) and sealed using clear nail varnish.
Confocal images of immunofluorescent staining were acquired with a Zeiss LSM880 confocal microscope equipped with 405, 488, 555, and 639 nm laser lines. All images were taken within the linear range at constant gain and pinhole settings at optimal resolution settings determined by the software. […]

a-syn-CHMP2B interaction = assay: Proximity ligation assay, endogenous a-syn-CHMP2B in rat cortical neurons
Procedure: PLA was performed on fixed primary neurons using Duolink® in situ red starter kit mouse/rabbit (Sigma–Aldrich) according to the manufacturer’s instructions. Fixed neurons were permeabilized with 0.1% Triton-X-100 in PBS for 10 min, washed three times with PBS, and incubated with blocking solution for 30 min at 37 °C in a humidity chamber. Primary antibodies (mouse anti-a-syn (clone 42) (BD Biosciences, catalog #610787, 1:500) and rabbit anti-CHMP2B (Abcam, catalog #ab33174, 1:50)) were diluted using antibody diluent. After blocking, neurons were incubated with primary antibodies at room temperature for 1 h in a humidity chamber. Coverslips were washed with wash buffer A two times for 5 min and then incubated with PLA probe solution (anti-mouse minus and anti-rabbit plus) for 1 h at 37 °C in a humidity chamber. Coverslips were washed with wash buffer A two times for 5 min. For the ligation step, 5× ligation buffer was diluted 1:5 in high purity water and ligase was added to the 1× ligation buffer at 1:40 dilution. After the wash, coverslips were incubated in the diluted ligase for 30 min at 37 °C in a humidity chamber. Post-ligation, coverslips were washed with wash buffer A two times for 5 min. For the amplification step, 5× amplification buffer was diluted 1:5 in high purity water and polymerase was added to the 1× amplification buffer at 1:80 dilution. […]

A53T a-syn = assay: Human a-syn immunoblot of cortical neuron lysates; settings: neuronal lysates
Procedure: Pregnant rats (E17) of the Sprague-Dawley strain were purchased from Envigo. Embryos were surgically removed from the mothers and cortices dissected in Hanks Balanced salt solution (Gibco). The meninges were removed, and cells were dissociated using a papain dissociation system (Worthington) before being resuspended in Neurobasal medium A supplemented with antibiotic-antimycotic solution (Gibco), L-glutamine substitute (GlutaMAX™; Gibco) and factor B27 (Gibco). Cells were plated on poly-D-lysine coated glass coverslips at a density of 5 × 10^5 cells/well, or on poly-D-lysine coated six-well cell culture plates at a density of 2 × 10^6 cells/well, and incubated at 37 °C in 5% CO2 with half media changes every 3 days. Cells were transduced with A53T a-syn or EV AAVs at 2 days post-isolation at a MOI of 3000. After 3 days, media containing AAV vectors were removed. […] Cells were fixed with 4% paraformaldehyde (PFA) for immunofluorescence staining or lysed for immunoblotting at 8 days post-isolation.
Infected neurons were scraped from 6-well dishes and lysed with RIPA buffer containing protease inhibitor cocktail (Roche). The Triton-X-100 soluble fraction was then separated from the insoluble pellet by centrifugation. Protein concentration was quantified using the DC protein assay (BioRad). […]

Question: Which “Effect on endogenous a-syn fluorescence” value (endogenous a-syn) does the source give for DEEIERQLKALG [PDpep1.3] here?
Answer: reduced fluorescence intensity

Question: And the “Effect on a-syn-CHMP2B interaction, PLA” value (a-syn-CHMP2B interaction)?
Answer: reduction of the interaction between endogenous WT a-syn and CHMP2B

Question: And the “Effect on total A53T a-syn protein” value (A53T a-syn)?
Answer: corresponding reduction in total A53T a-syn protein levels
